In patent EP4371976B1, “IONIZABLE LIPIDS AND LIPID NANOPARTICLES CONTAINING THEREOF” (Certest Biotec, S.L., priority 2022, dated 2024):

Columns and labels:
[1] = RNA encapsulation efficiency of LNPs by Quant-IT Ribogreen; format: physicochemical; conditions: for Encaps. efficiency (%): LNPs with luciferase mRNA, ionizable lipid:non-cationic lipid:sterol:PEG-modified lipid 50:10:38.5:1.5, percentage of RNA entrapped in the LNP; for Encaps. efficiency: Table 8, LNP 50:10:38.5:1.5, luciferase mRNA
How it was run: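 LNPs formed by mixing aqueous mRNA into ethanol lipid solution, diluted 1:1 in Tris, dialysed overnight against Tris with 15% sucrose. Encapsulated mRNA measured by Ribogreen fluorescence per kit protocol; LNPs adjusted to 100 µg/ml final mRNA.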

Female BALB/c mice = experiment: Firefly luciferase expression (total flux, IVIS imaging) in mice after injection of mRNA-loaded LNPs; format: in vivo; conditions: for protein expression in mice (transfection results): Figure 1 legend, LNPs containing RNA
Method: For in vivo administration, mRNA comprising in the 5' to 3' direction a sequence encoding for luciferase of SEQ ID NO:1, was encapsulated into LNPs following the procedure described in Hassett, K. J. et al., "Optimization of Lipid Nanoparticles for Intramuscular Administration of mRNA Vaccines", 2019, Mol. Ther. Nucleic Acid, vol. 15, pp. 1-11. Briefly, the purified mRNAs were first diluted in sodium citrate buffer at pH=4 at a final concentration of 266 µg/ml. Separately, a mixture of the ionizable lipid of the invention:DSPC (Merk 850365P):cholesterol (Sigma C3045):DMG-PEG2000 (Cayman 33945-1) were dissolved into ethanol at the respective molar percentages of 50:10:38.5:1.5, and with a lipid-nitrogen-to-phosphate ratio (N:P) ratio of 5,5:1.
The mRNA aqueous solution was then carefully added to the ethanol solution, and the resulted solution was homogenized by pipetting up and down for 4-5 times. The resulting LNPs were immediately diluted 1:1 with Tris buffer and dialyzed overnight against Tris buffer containing 15% sucrose. The resulting LNP solution was then collected, and the encapsulated mRNA was assessed by Quant-IT® Ribogreen (Invitrogen R11490) following the manufacturer's instructions.
Female BALB/c mice (Charles River Laboratories), 8-10-week-old, weighting 18-23 g, were acclimatized to new conditions upon arrival to experimental facilities for 3-7 days. Housing conditions were room temperature 20-24 °C, humidity 50-70 %, and light intensity 60 lux with a light-dark cycle of 12 hours.
For Firefly Luciferase activity measurement in mice, LNPs produced as indicated above (ionizable lipid:helper lipid: sterol:PEG-modified lipid → 50:10:38.5:1.5) and containing 5 µg of the indicated mRNA in 50 µl final volume, were injected intramuscularly.
From 4 to 72 hours after RNA-LPN inoculation mice were anaesthetized by inhalation with 4% of isoflurane using a vaporizer. The maintenance of the anaesthesia was performed at 1.5% of isoflurane. Then, D-luciferin (Quimigen, 12507) was injected intraperitoneally at 150 mg/kg, normally ~200 µL of the stock at 15 mg/mL in PBS for a 20 g mouse. Luciferase images were acquired 10 minutes after luciferin inoculation using the IVIS Lumina XRMS Imaging System following manufacturer's instructions.

[2] = Size distribution, polydispersity and Z-potential of LNPs by dynamic light scattering (Malvern Zetasizer); format: physicochemical; conditions: LNPs, standard formulation 50:10:38.5:1.5; DLS
Method: The LNP solution was then adjusted to a final concentration of mRNA of 100 µg/ml. Size distribution, polydispersity and Z-potential were measured by dynamic light scattering (DLS) using Malvern Zetasizer Advance Lab Blue Label. RNA encapsulation was assessed by Quant-IT® Ribogreen following the manufacturer's instructions.

[3] = Apparent pKa of LNPs comprising the ionizable lipid (Table 6); conditions: standard formulation 50:10:38.5:1.5
[4] = Table 8, mice, intramuscular, 5 µg luciferase mRNA in 50 µl, LNP 50:10:38.5:1.5
[5] = Table 9, comparative disulfide compounds, tested in vivo

Encaps. efficiency (%) [1] | P.D.I. [2] | Particle size/ Ø (nm) [2] | Z Potential (± D.E.) [mV] [2] | Apparent pKa [3] | SMILES | Encaps. efficiency [1] | Total Flux (Female BALB/c mice; [4]) | protein expression in mice (transfection results) (Female BALB/c mice) | Total Flux (Female BALB/c mice; [5]) | transfection (luminescence) in vivo (Female BALB/c mice; Figure 2, intramuscular injection, LNP 50:10:38.5:1.5 encapsulating luciferase mRNA) | Total Flux (Female BALB/c mice; Table 7A-C, mice, intramuscular, 5 µg luciferase mRNA in 50 µl, LNP ionizable lipid:helper lipid:sterol:PEG-modified lipid 50:10:38.5:1.5)
36.38% | 0.27 | 194.9 nm | -16.95 mV | – | CCCCCCCCCCCCCCCCCCCCCCOC(=O)CCSCC(CC(=O)NCCCN1CCOCC1)C(=O)OC(CCCCCCCC)CCCCCCCC (stereo not drawn) [VC-LC-0549] | 36.38% | 2.5E+07 p·s^-1 | – | – | – | –
43.65% | 0.11 | 140.3 nm | -8.47 mV | – | CCCCCCCCCCCCCOC(=O)CCSCC(CC(=O)NCCCN1CCOCC1)C(=O)OC(CCCCCCCC)CCCCCCCC (stereo not drawn) [VC-LC-0540] | 43.65% | 1.3E+08 p·s^-1 | – | – | – | –
31.52% | 0.18 | 168 nm | -13.52 mV | – | CCCCCCCCCCCCCCCCOC(=O)CCSCC(CC(=O)NCCCN1CCOCC1)C(=O)OC(CCCCCCCC)CCCCCCCC (stereo not drawn) [VC-LC-0547] | 31.52% | 1.1E+08 p·s^-1 | – | – | – | –
40.58% | 0.13 | 112.3 nm | -9.30 mV | – | CCCCCCCCC(CCCCCCCC)OC(=O)C(CSCCC(=O)OCCCCCC(C)C)CC(=O)NCCCn1ccnc1 (stereo not drawn) [VC-LC-0302] | 40.6% | 7.9E+07 p·s^-1 | – | – | – | –
33.79% | 0.11 | 143.8 nm | -10.53 mV | – | CCCCCCCCCCCCCCCCCCOC(=O)CCSCCC(NC(=O)C(CCCCCC)CCCCCCCC)C(=O)NCCCn1ccnc1 (stereo not drawn) [VC-LC-0262] | 33.79% | 7.5E+07 p·s^-1 | – | – | – | –
39.62% | 0.14 | 164.2 nm | -10.43 mV | – | CCCCCCCCCCCCCCCCCCOC(=O)CCSCC(CC(=O)NCCCN1CCOCC1)C(=O)OC(CCCCCCCC)CCCCCCCC (stereo not drawn) [VC-LC-0546] | 39.6% | 2.54E+07 p·s^-1 | – | – | – | –
98.62% | 0.23 | 170.1 nm | 0.25 mV | 7.60 | CCCCCCCCCCC(CCCCCCCC)C(=O)NC(CCSCCC(=O)OCCCCCCCC(C)C)C(=O)NCC1CCN(C)CC1 (stereo not drawn) [VC-LC-0509] | – | – | – | – | – | –
45.62% | 0.09 | 184.2 nm | -12.78 mV | 5.70 | CCCCCCCCC(CCCCCCCC)OC(=O)C(CSCCC(=O)OCCCCCC)CC(=O)NCCCn1ccnc1 (stereo not drawn) [VC-LC-0306] | – | – | – | – | – | –
41.23% | 0.25 | 168.1 nm | -15.07 mV | 4.83 | CCCCCCCC#CCOC(=O)CCSCCC(NC(=O)C(CCCCCC)CCCCCCCC)C(=O)NCCN1CCOCC1 (stereo not drawn) [VC-LC-0408] | – | – | – | – | – | –
92.05% | 0.15 | 137.6 nm | -10.72 mV | 6.02 | CCCCCCCCCCCCCCCCOC(=O)CCSCCC(C(=O)NCCCn1ccnc1)C(=O)OC(CCCCCCCC)CCCCCCCC (stereo not drawn) [VC-LC-0369] | – | – | – | – | – | –
65.16% | 0.17 | 156.2 nm | -7.01 mV | 6.82 | CCCCCCCCCCCCCCOC(=O)CCSCCC(NC(=O)C(CCCCCC)CCCCCCCC)C(=O)NCCN(CC)CC (stereo not drawn) [VC-LC-0478] | – | – | – | – | – | –

Further lines, the compound ahead of its results:

SMILES | Encaps. efficiency (%) [1] | P.D.I. [2] | Particle size/ Ø (nm) [2] | Z Potential (± D.E.) [mV] [2] | Apparent pKa [3] | Encaps. efficiency [1] | Total Flux (Female BALB/c mice; [4]) | protein expression in mice (transfection results) (Female BALB/c mice) | Total Flux (Female BALB/c mice; [5]) | transfection (luminescence) in vivo (Female BALB/c mice; Figure 2, intramuscular injection, LNP 50:10:38.5:1.5 encapsulating luciferase mRNA) | Total Flux (Female BALB/c mice; Table 7A-C, mice, intramuscular, 5 µg luciferase mRNA in 50 µl, LNP ionizable lipid:helper lipid:sterol:PEG-modified lipid 50:10:38.5:1.5)
CCCCCCCC/C=C\CCCCCCCC(=O)NC(CCSCCC(=O)OCCCCCCCCCCCCC)C(=O)NCCCN(CCO)CCO (stereo not drawn) [VC-LC-0289] | 89.26% | 0.2 | 207.1 nm | -0.34 mV | – | 89.3% | 2.329E+07 p·s^-1 | good transfection results | – | – | –
CCCCCCCCC(CCCCCC)C(=O)NC(CCSSCCC(NC(=O)C(CCCCCC)CCCCCCCC)C(=O)NCCCN(CCO)CCO)C(=O)NCCCN(CCO)CCO (stereo not drawn) [VC-LC-0237] | – | – | – | – | – | – | – | – | 3.16E+05 p·s^-1 | – | –
CCCCCCCCC(CCCCCC)C(=O)NC(CCSSCCC(NC(=O)C(CCCCCC)CCCCCCCC)C(=O)NCCN1CCN(C)CC1)C(=O)NCCN1CCN(C)CC1 (stereo not drawn) [VC-LC-0236] | – | – | – | – | – | – | – | – | 5.20E+05 p·s^-1 | no transfection | –
CCCCCCCCCCCCCOC(=O)CCSCCC(C(=O)NCCCn1ccnc1)C(=O)OC(CCCCCCCC)CCCCCCCC (stereo not drawn) [VC-LC-0362] | 73.55% | 0.14 | 121.1 nm | -13.94 mV | – | 73.5% | 3.31E+07 p·s^-1 | – | – | – | –
CCCCCCCCCCCCCCCCCCOC(=O)CCSCCC(NC(=O)C(CCCCCC)CCCCCCCC)C(=O)NC1CCN(C)CC1 (stereo not drawn) [VC-LC-0215] | 58.34% | – | 143.5 nm | -13.70 mV | – | 58.3% | 4.23E+07 p·s^-1 | – | – | – | –
CCCCCCCCCCCCCOC(=O)CCSCCC(NC(=O)C(CCCCCC)CCCCCCCC)C(=O)NCC1CCN(C)CC1 (stereo not drawn) [VC-LC-0490] | 97.16% | 0.18 | 136.1 nm | 0.83 mV | – | 97.2% | 1.7E+07 p·s^-1 | – | – | – | –
CCCCCCCCCCCCC(CCCCCCCCCC)COC(=O)CCSCCC(NC(=O)C(CCCCCCCC)CCCCCCCCCC)C(=O)NCC1CCN(C)CC1 (stereo not drawn) [VC-LC-0521] | 52.01% | 0.071 | 153.1 nm | -4.50 mV | – | 52.01% | 1.1E+08 p·s^-1 | – | – | – | –
CCCCCCCCCCCCCCOC(=O)CCSCCC(C(=O)NCCCn1ccnc1)C(=O)OC(CCCCCCCC)CCCCCCCC (stereo not drawn) [VC-LC-0367] | 47.47% | 0.19 | 134.6 nm | -15.48 mV | – | 47.5% | 3.16E+07 p·s^-1 | – | – | – | –
CCCCCCCCCCCCCOC(=O)CCSCCC(C(=O)NC1CCN(C)CC1)C(=O)OC(CCCCCCCC)CCCCCCCC (stereo not drawn) [VC-LC-0441] | 78.30% | 0.12 | 186.5 nm | -4.04 mV | – | 78.3% | 2.2E+07 p·s^-1 | – | – | – | –
CCCCCCCCC(CCCCCC)C(=O)NC(CCSSCCC(NC(=O)C(CCCCCC)CCCCCCCC)C(=O)NCCCN(C)C)C(=O)NCCCN(C)C (stereo not drawn) [VC-LC-0230] | – | – | – | – | – | – | – | – | 4.47E+05 p·s^-1 | – | –
CCCCCCCC/C=C\CCCCCCCC(=O)NC(CCSCCC(=O)OCC(CCCCCCCCCC)CCCCCCCCCCCC)C(=O)NCCCN1CCOCC1 (stereo not drawn) [VC-LC-0353] | 57.26% | 0.1 | 175.8 nm | -8.97 mV | – | 57.26% | 5.2E+07 p·s^-1 | good transfection results | – | – | –
CCCCCCC#CCCOC(=O)CCSCC(CC(=O)NCCCN1CCOCC1)C(=O)OC(CCCCCCCC)CCCCCCCC (stereo not drawn) | – | – | – | – | – | – | – | – | – | – | Total flux: 1,4E+08 p·s^-1
CCCCCCCCCCCCCCOC(=O)CCSCCC(C(=O)NC1CCN(C)CC1)C(=O)OC(CCCCCCCC)CCCCCCCC (stereo not drawn) [VC-LC-0444] | 85.85% | 0.07 | 185.7 nm | -3.35 mV | 6.28 | – | – | – | – | – | –
